Laboratory results as given in patent US7608249B2, “Enhanced substrate imaging by reversible binding to a paramagnetic complex” (Bracco Imaging S.p.A., priority 2001, dated 2009).

Assays:
[1] = Affinity of paramagnetic complex towards substrate by PRE method; type: binding
Text: (§1) Since the relaxivity of the two paramagnetic species involved in the equilibrium, that bound to the substrate molecule and that unbound, are different, the well-established Proton Relaxation Enhancement (PRE) method (Aime S, Fasano M, Terreno E, Botta M in The Chemistry of Contrast Agents in Medical Magnetic Resonance Imaging, Merbach A E, Tóth E (eds), Wiley & Sons: Chichester, 2001, 203-209) may be conveniently used for estimating the affinity of the paramagnetic complex towards the substrate molecule.
(§2) The KA values obtained for the adducts disclosed in the following are measured according to this PRE method.

[2] = Affinity of paramagnetic complex towards substrate by Proton Relaxation Enhancement (PRE) method; type: binding; details: Lactate; pH 7 and 25° C.
Text: as §1, §2
By adding lactate to an aqueous solution of GdDO3A the following equilibrium takes place: GdDO3A(H2O)2+Lactate ? GdDO3A(Lactate)+2H2O
Since the relaxivity of the two Gd(III) species involved in the equilibrium are different (higher for GdDO3A(H2O)2), the well-consolidated Proton Relaxation Enhancement (PRE) method (Aime S, Fasano M, Terreno E, Botta M in The Chemistry of Contrast Agents in Medical Magnetic Resonance Imaging, Merbach A E, Tóth E (eds), Wiley & Sons: Chichester, 2001, 203-209) may be conveniently used for estimating the affinity of the GdDO3A complex towards Lactate.

Row | Compound | KA ([1]; aspartate, 298 K and pH 7) | KA ([1]; oxalate, 298K and pH 7) | KA ([1]; citrate, pH 7 and 25° C.) | binding strength ([1]; inorganic phosphate, pH 7.4 and 25° C.) | KA [2]
1 | 10-[(3-carboxyphenyl)methyl]-1,4,7,10-tetraazaciclododecane-1,4,7-triacetic acid gadolinium complex [Gd-3] | 120 M⁻¹ | > 50000 M⁻¹ |  |  | 
2 | O=C([O-])CN1CCNCCN(CC(=O)[O-])CCN(CC(=O)[O-])CC1.[Gd+3] [GdDO3A] |  |  | 40 M⁻¹ | 50 M⁻¹ | 150 M⁻¹
